The values that follow come from patent US20180325889A1, “IMMUNOREGULATORY AGENTS” (FLEXUS BIOSCIENCES, INC., priority 2014, published 2018).

In general, IC50 refers to the midpoint of a concentration-inhibition curve.

In the test the target is T1, human IDO1/HEK293 cells (Homo sapiens, UniProt P14902).
T1 construct: expressed in transfected cells
T1 sequence (P14902 whole entry): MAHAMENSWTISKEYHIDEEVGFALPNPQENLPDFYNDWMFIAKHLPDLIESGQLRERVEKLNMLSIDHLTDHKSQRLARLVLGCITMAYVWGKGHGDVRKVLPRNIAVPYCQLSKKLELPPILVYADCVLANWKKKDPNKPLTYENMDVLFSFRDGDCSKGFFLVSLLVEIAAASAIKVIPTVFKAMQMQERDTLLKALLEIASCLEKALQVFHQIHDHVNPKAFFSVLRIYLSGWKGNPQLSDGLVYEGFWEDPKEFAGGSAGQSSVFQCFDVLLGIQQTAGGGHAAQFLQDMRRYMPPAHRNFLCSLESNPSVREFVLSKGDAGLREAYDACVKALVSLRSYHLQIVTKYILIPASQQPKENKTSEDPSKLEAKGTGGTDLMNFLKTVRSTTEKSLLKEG
The test can be described thus: HEK Human IDO-1 cell-based IDO inhibition assay (kynurenine production). Conditions: HEK293 cells stably expressing human IDO1, 20 hours incubation, absorbance at 490 nm; read-out: HEK Human IDO-1 Bio Activity (IDO IC50). As to the method: They were cultured in medium (DMEM with 10% FBS) containing 1 mg/ml G418 for two weeks.
The human IDO1/HEK293 cells were seeded at 10,000 cells per 50 μL per well with RPMI/phenol red free media contains 10% FBS in a 384-well black wall clear bottom tissue culture plate (Matrix Technologies LLC) 100 nL of certain concentration of compound was then added to each well using ECHO liquid handling systems. The cells were incubated for 20 hours in 37° C. incubator with 5% CO2.
The compound treatments were stopped by adding trichloroacetic acid (Sigma-Aldrich) to a final concentration at 0.2%. The cell plate was further incubated at 50° C. for 30 minute. The equal volume supernatant (20 μL) and 0.2% (w/v) Ehrlich reagent (4-dimethylaminobenzaldehyde, Sigma-Aldrich) in glacial acetic acid were mixed in a new clear bottom 384-well plate. This plate was then incubated at room temperature for 30 minute. The absorbance at 490 nm was measured on Envision plate reader.
With `Cc1c(C2CCC(C(C)NC(=O)c3ccc(-c4ccccc4)cc3)CC2)ccnc1F` (single isomer, unassigned) [Example 224, N-(1-(4-(2-fluoro-3-methylpyridin-4-yl)cyclohexyl)ethyl)-[1,1′-biphenyl]-4-carboxamide], the IC50 was less than 250 nM.

With `CCC(NC(=O)c1ccc(Cl)cc1)C1CCC(c2cccc(C(F)F)n2)CC1` (single isomer, unassigned) [Example 231b, 4-chloro-N-(1-(4-(6-(difluoromethyl)pyridin-2-yl)cyclohexyl)propyl)benzamide], the half-maximal inhibitory concentration (IC50) is less than 2000 nM.

`CCC(NC(=O)c1ccc(Cl)cc1)C1CCC(c2cccc(C(F)F)n2)CC1` (single isomer, unassigned) [Example 231c, 4-chloro-N-(1-(4-(6-(difluoromethyl)pyridin-2-yl)cyclohexyl)propyl)benzamide]: the IC50 was less than 2000 nM.

Turning to `CCC(NC(=O)c1ccc(Cl)cc1)C1CCC(c2cccc(C(F)F)n2)CC1` (single isomer, unassigned) [Example 231d, 4-chloro-N-(1-(4-(6-(difluoromethyl)pyridin-2-yl)cyclohexyl)propyl)benzamide], the IC50 is less than 2000 nM.

Take `CCC(NC(=O)c1ccc(Cl)cc1)C1CCC(c2cccc(C(F)F)n2)CC1` (single isomer, unassigned) [Example 231e, 4-chloro-N-(1-(4-(6-(difluoromethyl)pyridin-2-yl)cyclohexyl)propyl)benzamide]: the IC50 was less than 50 nM.

On to `Cc1cccc(S(=O)(=O)N[C@H](C)[C@H]2CC[C@@H](c3ccnc4ccc(F)cc43)CC2)c1` [Example 40, N—((R)-1-((1 s,4S)-4-(6-Fluoroquinolin-4-yl)cyclohexyl)ethyl)-3-methylbenzenesulfonamide], for which the IC50 was less than 2000 nM.

For `Cc1ccc(S(=O)(=O)N[C@H](C)[C@H]2CC[C@@H](c3ccnc4ccc(F)cc43)CC2)cc1` [Example 41, N-((R)-1-((1s,4S)-4-(6-fluoroquinolin-4-yl)cyclohexyl)ethyl)-4-methylbenzenesulfonamide], the IC50 was less than 250 nM.

`C[C@@H](NS(=O)(=O)c1ccccc1Cl)[C@H]1CC[C@@H](c2ccnc3ccc(F)cc32)CC1` [Example 42, 2-chloro-N-((R)-1-((1s,4S)-4-(6-fluoroquinolin-4-yl)cyclohexyl)ethyl)benzenesulfonamide]: the IC50 was less than 2000 nM.

As to `C[C@@H](NS(=O)(=O)c1ccc(Cl)cc1)[C@H]1CC[C@@H](c2ccnc3ccc(F)cc32)CC1` [Example 43, 4-chloro-N-((R)-1-((1s,4S)-4-(6-fluoroquinolin-4-yl)cyclohcxyl)ethyl)benzenesulfonamide], the IC50 was less than 2000 nM.

`C[C@@H](NS(=O)(=O)c1cccc(Cl)c1)[C@H]1CC[C@@H](c2ccnc3ccc(F)cc32)CC1` [Example 44, 3-chloro-N-((R)-1-((1s,4S)-4-(6-fluoroquinolin-4-yl)cyclohexyl)ethyl)benzenesulfonamide]: the IC50 was less than 50 nM.

Take `COc1cccc(S(=O)(=O)N[C@H](C)[C@H]2CC[C@@H](c3ccnc4ccc(F)cc43)CC2)c1` [Example 45, N-((R)-1-((1s,4S)-4-(6-fluoroquinolin-4-yl)cyclohexyl)ethyl)-3-methoxybenzenesulfonamide]: the IC50 was less than 2000 nM.

Take `COc1ccc(S(=O)(=O)N[C@H](C)[C@H]2CC[C@@H](c3ccnc4ccc(F)cc43)CC2)cc1` [Example 46, N-((R)-1-((1s,4S)-4-(6-fluoroquinolin-4-yl)cyclohexyl)ethyl)-4-methoxybenzenesulfonamide]: the IC50 is less than 2000 nM.

Consider `C[C@@H](NC(=O)c1ccc(Cl)cc1)[C@H]1CC[C@@H](c2ccnc3ccc(F)cc32)CC1` [Example 47, 4-Chloro-N—((R)-1-((1 s,4S)-4-(6-fluoroquinolin-4-yl)cyclohexyl)ethyl)benzamide], for which the IC50 is less than 50 nM.

As for `C[C@@H](NC(=O)c1ccccc1)[C@H]1CC[C@@H](c2ccnc3ccc(F)cc32)CC1` [Example 48, N-((R)-1-((1s,4S)-4-(6-fluoroquinolin-4-yl)cyclohexyl)ethyl)benzamide], the IC50 is less than 50 nM.

Consider `Cc1ccccc1C(=O)N[C@H](C)[C@H]1CC[C@@H](c2ccnc3ccc(F)cc32)CC1` [Example 49, N-((R)-1-((1s,4S)-4-(6-fluoroquinolin-4-yl)cyclohexyl)ethyl)-2-methylbenzamide], for which the IC50 was less than 50 nM.

On to `Cc1cccc(C(=O)N[C@H](C)[C@H]2CC[C@@H](c3ccnc4ccc(F)cc43)CC2)c1` [Example 50, N-((R)-1-((1s,4S)-4-(6-fluoroquinolin-4-yl)cyclohexyl)ethyl)-3-methyl benzamide], for which the IC50 was less than 50 nM.

Consider `Cc1ccc(C(=O)N[C@H](C)[C@H]2CC[C@@H](c3ccnc4ccc(F)cc43)CC2)cc1` [Example 51, N-((R)-1-((1s,4S)-4-(6-fluoroquinolin-4-yl)cyclohexyl)ethyl)-4-methylbenzamide], for which the IC50 is less than 50 nM.

For the compound `COc1ccccc1C(=O)N[C@H](C)[C@H]1CC[C@@H](c2ccnc3ccc(F)cc32)CC1` [Example 52, N-((R)-1-((1s,4S)-4-(6-fluoroquinolin-4-yl)cyclohexyl)ethyl)-2-methoxybenzamide], the IC50 is less than 50 nM.

With `COc1cccc(C(=O)N[C@H](C)[C@H]2CC[C@@H](c3ccnc4ccc(F)cc43)CC2)c1` [Example 53, N-((R)-1-((1s,4S)-4-(6-fluoroquinolin-4-yl)cyclohexyl)ethyl)-3-methoxybenzamide], the IC50 is less than 50 nM.

As to `C[C@@H](NC(=O)c1ccccc1F)[C@H]1CC[C@@H](c2ccnc3ccc(F)cc32)CC1` [Example 54, 2-fluoro-N-((R)-1-((1s,4S)-4-(6-fluoroquinolin-4-yl)cyclohexyl)ethyl)benzamide], the IC50 is less than 50 nM.

For the compound `C[C@@H](NC(=O)c1cccc(F)c1)[C@H]1CC[C@@H](c2ccnc3ccc(F)cc32)CC1` [Example 55, 3-fluoro-N-((R)-1-((1S,4S)-4-(6-fluoroquinolin-4-yl)cyclohexyl)ethyl)benzamide], the IC50 is less than 50 nM.

With `C[C@@H](NC(=O)c1ccccc1Cl)[C@H]1CC[C@@H](c2ccnc3ccc(F)cc32)CC1` [Example 56, 2-chloro-N-((R)-1-((1s,4S)-4-(6-fluoroquinolin-4-yl)cyclohexyl)ethyl)benzamide], the IC50 was less than 50 nM.

With `C[C@@H](NC(=O)c1cccc(Cl)c1)[C@H]1CC[C@@H](c2ccnc3ccc(F)cc32)CC1` [Example 57, 3-chloro-N-((R)-1-((1s,4S)-4-(6-fluoroquinolin-4-yl)cyclohexyl)ethyl)benzamide], the IC50 was less than 50 nM.

For `C[C@@H](NC(=O)c1ccc(Cl)c(Cl)c1)[C@H]1CC[C@@H](c2ccnc3ccc(F)cc32)CC1` [Example 59, 3,4-dichloro-N-((R)-1-((1s,4S)-4-(6-fluoroquinolin-4-yl)cyclohexyl)ethyl)benzamide], the IC50 was less than 50 nM.

On to `C[C@@H](NC(=O)c1ccc(F)cc1)[C@H]1CC[C@@H](c2ccnc3ccc(F)cc32)CC1` [Example 60, 4-fluoro-N-((R)-1-((1s,4S)-4-(6-fluoroquinolin-4-yl)cyclohexyl)ethyl)benzamide], for which the IC50 is less than 50 nM.

For the compound `C[C@@H](NC(=O)c1cccc(-c2ccccc2)c1)[C@H]1CC[C@@H](c2ccnc3ccc(F)cc32)CC1` [Example 61, N-((R)-1-((1s,4S)-4-(6-fluoroquinolin-4-yl)cyclohexyl)ethyl)-[1,1′-biphenyl]-3-carboxamide], the IC50 is less than 50 nM.
